In patent US20160193325A1 (priority 2002, published 2016):

System: HCVpp
Conditions: 25 μM AZT before and during infection; Huh-7
Method: HCVpp were treated with 25 μM AZT (3′-azido-3′-deoxythymidine; Sigma-Aldrich, France) before and during infection of target cells (lane j).

**Q.** Which effect on transduction does the source give for `Cc1cn([C@H]2C[C@H](N=[N+]=[N-])[C@@H](CO)O2)c(=O)[nH]c1=O` [AZT, 3′-azido-3′-deoxythymidine] here?
**A.** The effect on transduction was “inhibited transduction”.
